Marks after values point to notes of the source that are not given here.
Columns and labels:
[1] = tested on: restenosis experimentally caused by balloon angioplasty; experiment: Restenosis induced in rats by balloon angioplasty (neointima/middle tunica thickness ratio); format: in vivo, Male Wistar rats; conditions: for Restenosis %: 14 days after vascular damage, control = 100; for formation of the neointima tunica in the vascular wall / restenosis (in words): summary of Table 1, NO-aspirin low doses, Aspirin high doses
Procedure: Efficacy of Aspirin and of 2-acetyloxybenzoic acid (3-nitrooxymethyl)phenyl ester (Formula XI), in an Experimental Model of Restenosis Induced in Rats
Male Wistar rats weighing 300-350 g were anaesthetized by intraperitoneal injection of ketamine (100 mg/kg) and xylazine (5 mg/kg) and subjected to angioplasty according to the procedure described by Indolfi et Al., Circulation, 1995, 92, 1230-1235, by using a little balloon catheter which was first introduced in the aortic arch through the right carotid, then swollen and then let pass three times forth and back in the duct lumen.
(§1) The rats were divided in the indicated groups (n. 12 animals each) and subjected to pharmacological treatment as described hereunder for the 14 days following the vascular damage. The compounds, dissolved in polyethylenglycol (PEG 400) were administered by os by gastric probe according to the following scheme:
2 groups received NO-Aspirin at the dose of 30 and 100 mg/kg, respectively,
2 groups received Aspirin at the dose of 16 and 54 mg/kg, respectively,
1 group received NO-Ketorolac at the dose of 10 mg/Kg,
1 group received Ketorolac at the dose of 5 mg/Kg,
the control group received only the carrier (PEG 400, 0.2 ml/rat).
At the end of the treatment the animals were anaesthetized as described above and the carotids were first washed by infusion, through the left ventricle, of saline buffer phosphate (PBS, pH 7,2, 100 ml) then fixed with PBS containing paraformaldehyde (4%).
(§2) The animals were sacrificed and the carotids removed. For each artery n. 6 sections having a thickness of 6 μm were isolated. Stomachs were removed and inspected for damages of the gastric mucosa, determining the areas of both bleeding lesions and non bleeding lesions. Said lesions were evaluated by a score according to known methods.
3 of the 6 sections of each artery were stained with hematoxylin and eosin to evidence different types of cells, the remaining 3 sections were stained first with aldehyde fuchsin and then with the Gieson solution to evidence the internal elastic lamina (IEL). The sections were photographed and the imagines were analyzed by an image analysis system (Qwin Lite, Leica, Milan).
The thicknesses respectively of the middle and neointima tunica, and of the duct wall were measured. The results reported in Table 1 are expressed as percentage of restenosis and have been calculated as a ratio between the thickness of the neointima tunica and that of the middle tunica […] measured in the sections obtained from the groups, assuming equal to 100 the N/M ratio of the control group.

gastric mucosa = experiment: Damages to the gastric mucosa (lesion score) in the rats of the restenosis model; format: in vivo, Male Wistar rats; conditions: for Gastric damage Score: control score 2
Procedure: as §1, §2

[2] = tested on: SP-SHR rats (Stroke-Prone Spontaneously Hypertension Rats); experiment: Mortality/survival in SP-SHR rats under chronic treatment for 16 weeks; format: in vivo; conditions: controls 0
Text: Evaluation of the Mortality in SP-SHR Rats (Stroke-Prone Spontaneously Hypertension Rats) Treated With 2-acetyloxybenzoic acid (6-nitrooxymethyl)-2-methylpyridinyl hydrochloride ester (Formula XV), (NO-ASA) and Aspirin.
In this experiment SP-SHR rats were used which develop a severe hypertension, with a high incidence of spontaneous cerebral infarct. […] (Yamori Y. et al. Stroke 1976; 7: 46-53).
Three groups each formed by 12 SP-SHR rats, 8 weeks old at the beginning of the experiment, received for 16 weeks together with the daily diet Aspirin (54 mg/kg) NO-ASA (30 mg/kg); the control group received only the diet.
During the period of chronic treatment the percentage of animal survival was evaluated.

[3] = tested on: oxidized LDL in the vascular wall; experiment: Vascular damage in carotids: oxidized LDL in the vascular wall (MDA2 antibody immunohistochemistry); format: in vivo, SP-SHR rats; conditions: control = 0
Procedure: Evaluation of the Vascular Damage in Animals Treated With NO-ASA and Aspirin
In this experiment SP-SHR rats were used, as in the previous Example.
Three groups, each formed by 12 SP-SHR rats, 8 weeks old at the beginning of the experiment, received respectively for 6 weeks, together with the daily diet Aspirin (54 mg/kg) NO-ASA (30 mg/kg) (two groups); the control group (third group) received only the diet.
At the end of the treatment the animals were sacrificed by decapitation and the carotids were isolated. The ducts were opened and washed with cold sterile buffer phosphate (PBS) containing EDTA (2 mM) and maintained in cold PBS (cooled in ice bath) containing 2, [6]-di-tert-butyl-p-cresol (50 μM), aprotin (0.001%), EDTA (50 mM) and chloramphenicol (0.008%). The arteries were fixed with formalin (10%), then soaked in paraffin and then dissected. An aliquot of the obtained sections was incubated with MDA2 antibodies, which are directed against specific epitopes for oxidized LDL.
The data were calculated by considering the number of the sections, positive at the immunohistochemical test with MDA2 antibodies, detected in the groups of the treated animals and in the control group, respectively. The results are expressed as percentage of reduction of the oxidized LDL (low density lipoprotein) presence in the vascular wall taking as 0 the LDL value measured in the control group.

[4] = 54 mg/kg/die with the daily diet
[5] = 30 mg/kg/die with the daily diet

SMILES: CC(=O)Oc1ccccc1C(=O)O [Aspirin, aspirin]
- Restenosis % ([1]; 16 mg/Kg by os): 100%
- Restenosis % ([1]; 54 mg/Kg by os): 55* %
- formation of the neointima tunica in the vascular wall / restenosis (in words) [1]: small reduction of the restenosis
- Gastric damage Score (gastric mucosa; Dose 50 mg/Kg): 22*
- Gastric damage Score (gastric mucosa; Dose 100 mg/Kg): 42*
- gastric toxicity / lesions to the gastric mucosa (in words) (gastric mucosa; rat, in vivo): produce lesions to the gastric mucosa
- % of survival, XVIth week [2, 4]: 50%
- % of survival, Xth week [2, 4]: 100%
- reduction % of the presence of oxidized LDL ([3]; 54 mg/kg with the daily diet for 6 weeks): 19%

SMILES: O=C(c1ccccc1)c1ccc2n1CCC2C(=O)O (centres unmarked) [Ketorolac, ketorolac]
- Restenosis % ([1]; 5 mg/Kg by os): 100%
- Gastric damage Score (gastric mucosa; Dose 5 mg/Kg): 50

SMILES: O=C(c1ccccc1)c1ccc2n1CCC2C(=O)OCCCCO[N+](=O)[O-] (centres unmarked) [NO Ketorolac, 5-benzoyl-2,3-dihydro-1H-pyrrolizin-1-carboxylic acid (4-nitrooxy)butyl ester]
- Restenosis % ([1]; 10 mg/Kg by os): 90%
- formation of the neointima tunica in the vascular wall / restenosis (in words) [1]: not very effective
- Gastric damage Score (gastric mucosa; Dose 10 mg/Kg): 20
- gastric toxicity / lesions to the gastric mucosa (in words) (gastric mucosa; summary of Table 1, Aspirin high doses): shows a gastric toxicity

SMILES: CC(=O)Oc1ccccc1C(=O)OCc1cccc(CO[N+](=O)[O-])n1.Cl [NO-ASA, 2-(acetyloxy)benzoic acid, 6-(nitrooxymethyl)-2-methyl pyridinyl hydrochloride ester]
- % of survival, XVIth week [2, 5]: 100%
- % of survival, Xth week [2, 5]: 100%
- reduction % of the presence of oxidized LDL ([3]; 30 mg/kg with the daily diet for 6 weeks): 74%

SMILES: CC(=O)Oc1ccccc1C(=O)Oc1cccc(CO[N+](=O)[O-])c1 [NO-Aspirin, 2-(acetyloxy)benzoic acid 3-(nitrooxymethyl)phenyl ester]
- Restenosis % ([1]; 30 mg/Kg by os): 62.5* %
- Restenosis % ([1]; 100 mg/Kg by os): 31* %
- formation of the neointima tunica in the vascular wall / restenosis (in words) [1]: already significantly reduced
- Gastric damage Score (gastric mucosa; Dose 166 mg/Kg): 2
- Gastric damage Score (gastric mucosa; Dose 249 mg/Kg): 4
